According to patent publication US12605386B2, “Sapropterin formulation” (APR Applied Pharma Research SA, priority 2022, dated 2026):
Where two headings read alike, the source gives them in different places.

Columns and labels:
[1] = Visual observation of unformulated SPT solutions; format: physicochemical; conditions: 100 mM solutions; yellow/orange colour developed overtime
Protocol: Stability over time of unformulated SPT solutions was initially investigated through visual observation of 100 mM solutions. The solutions were seen to be very unstable and a yellow/orange colour developed overtime, presumably due to the formation of oxidation sub-products.

[2] = Vegetable oil suspension stability study, water extraction and HPLC; format: physicochemical; conditions: oil free control; freshly prepared aqueous solutions
Protocol: A simple stability study was carried out to establish the stability potential of the formulations tested. The stability study was carried out for a month at room temperature as this would reflect the conditions under which the material would be stored.
The stability work was focused on vegetable oils. Food grade vegetable oils were tested and they were sourced from a supermarket and only opened before starting the stability work. Exploratory stability work was then carried out to establish the potential of liquid formulations for sunflower oil, olive oil, rapeseed oil and rice bran oil.
Stability was informally assessed by preparing 10% w/w sapropterin suspensions and storing at room temperature on a shelf away from direct sunlight. Individual aliquots were prepared at each time point. At each sampling point sapropterin was extracted from oil with water as set out below and the sample analysed by HPLC. Absence of degradation products was used to establish lack of oxidation. The HPLC method set out above was not validated for quantitative analysis. Instead, SPT peak size was also semi-quantitatively used to further corroborate absence of oxidation but this was carried out by simply overlaying traces (e.g. SPT peak size at day 0 vs day 7) rather than performing calibrations curves of SPT. […]
Samples were analysed at day 0, day 5, day 7, and/or day 31.

[3] = cited from earlier work
[4] = cited from earlier work; remark: listed apart in the source
[5] = Peroxide degradation of sapropterin with HPLC analysis; format: physicochemical; conditions: peroxide degradation: 5 mL of 0.1% H2O2, 1.5 hours, room temperature
Protocol: A sample of sapropterin was subjected to peroxide degradation with 5 mL of 0.1% H2O2 for 1.5 hours at room temperature.
HPLC analysis of the resulting oxidative degradation of sapropterin was performed according to the procedure described below and the results are shown in Table 2.
• Column: YMC Pack ODS AQ (250×4.6) mm, […] • Buffer: potassium dihydrogen phosphate pH3.0 with orthophosphoric acid • Mobile Phase A: 100% Buffer • Mobile Phase B: acetonitrile:methanol (1:9) • Wavelength: 220 nm for Impurity A, C, D, E, G • Wavelength: 275 nm for Impurity F • Flow: 0.6 ml/min • Injection Volume: 5 μl • Column Temperature: 30° C. • Sample Compartment: 5° C. • Run Time: 45 min Preparation of Mobile Phase: • Mobile Phase A: 2.72 g of potassium dihydrogen phosphate was added to 1000 ml of water and dissolved. pH was adjusted to 3.0 using orthophosphoric acid. The solution was mixed and filtered through 0.45 μm nylon membrane filter and degassed. • Mobile Phase B: 900 ml of methanol and 100 ml of acetonitrile was dissolved, mixed, and degassed.
Preparation of 0.1N HCl: 8.5 ml of hydrochloric acid was added to 900 ml of water, diluted to 1000 ml with water, and then mixed.
Diluent: 2.72 g of potassium dihydrogen phosphate was added to 1000 ml of water and dissolved. pH was adjusted to 3.0 using orthophosphoric acid. 10 mg of ascorib acid was added, mixed, and then filtered through 0.45 μm nylon membrane filter and degassed.

[6] = HPLC analysis of sapropterin solutions in water; format: physicochemical
Protocol: Visual observations of degradation of sapropterin solutions were confirmed through HPLC analysis. The following methodology was used: Samples that were diluted to ca. 1 mM prior to analysis. HPLC Method • Column: Partisil […] SCX 250× (from […]) • Mode: isocratic • Mobile phase: KH2PO4 30 mM at pH 3.0 • Oven temperature: 30° C. • injection volume: 25 μL • flow: 1.5 mL/min (generated ca. 60 bar) • Detection: DAD 254-360 with acquisition at 254 HPLC System (VWR Hitachi) • VWR Hitachi L-2000 organizer • DAD: L2455 • Autosampler: L2200 • Pump: L2130 • Column oven: L2350 Preparation of Mobile Phase • 1) V (H2O)=500 mL • 2) m(KH2PO4)=2.04 g (MW=136.09 g/mol) • 3) To pH 3 with phosphoric acid diluted 50 fold with water (v/v) • Note: prior to dilution phosphoric acid stock was at 85% • Note2: 5-8 g of 1/50 diluted solution are required to drop pH to 3.0 Three solutions of sapropterin in water at 100 mM were submitted to HPLC analysis. Each solution was tested at a different time point one was tested when freshly prepared, one after one day and the other after 7 weeks old.

[7] = powder and tablet formulations suspended in various foods and water at 20 mg/mL (62 mM); after one hour; cited from earlier work
[8] = 0.1 M phosphate buffer, pH 6.8, room temperature

stability over time (visual observation) [1]: very unstable | oxidation products by HPLC [2]: vestigial amounts of oxidation products | Impurities (% w/w): Impurity A [5]: 0.02 % w/w | Impurities (% w/w): Impurity B [5]: 11.791 % w/w | Impurities (% w/w): Impurity C [5]: 5.322 % w/w | Impurities (% w/w): Impurity D [5]: 0.116 % w/w | Impurities (% w/w): Impurity H [5]: 0.106 % w/w | Impurities (% w/w): Unknown impurity @RRT 0.70 [5]: 0.191 % w/w | Impurities (% w/w): Unknown impurity @RRT 0.85 [5]: 0.026 % w/w | Impurities (% w/w): Unknown impurity @RRT 0.89 [5]: 0.010 % w/w | Impurities (% w/w): Unknown impurity @RRT 0.94 [5]: 0.108 % w/w | Impurities (% w/w): Unknown impurity @RRT 1.11 [5]: 0.015 % w/w | Impurities (% w/w): Unknown impurity @RRT 1.41 [5]: 0.212 % w/w | Impurities (% w/w): Unknown impurity @RRT 1.54 [5]: 0.022 % w/w | Impurities (% w/w): Unknown impurity @RRT 1.63 [5]: 0.010 % w/w | Impurities (% w/w): Unknown impurity @RRT 1.77 [5]: 0.007 % w/w | Impurities (% w/w): Unknown impurity @RRT 2.08 [5]: 0.004 % w/w | Impurities (% w/w): Unknown impurity @RRT 2.15 [5]: 0.007 % w/w | Impurities (% w/w): Unknown impurity @RRT 2.24 [5]: 0.006 % w/w | Impurities (% w/w): Unknown impurity @RRT 2.34 [5]: 0.095 % w/w | major degradation products [5]: Impurities B and C | time after which an oxidation sub-product peak became evident ([6]; 1 mM solution): 2 h | oxidation product by HPLC ([6]; 100 mM in water, freshly prepared): did not show any oxidation product | reduction in the SPT peak by oxidation ([6]; 100 mM in water, within a period of 24 h): not pronounced
SMILES: C[C@H](O)[C@H](O)[C@H]1CNc2nc(N)[nH]c(=O)c2N1 [Sapropterin, sapropterin]
pH of solution in water ([3]; 1 mM solution): 3.0 | pH of solution in water ([3]; 1 M solution): 0.45 | solubility in water [3]: freely soluble | degradation of solution in water ([4]; 0.1 mM, after 1 hour open at room temperature): about 25% | degradation of solution in water ([4]; 0.1 mM, after 3 hours): more than 60% | degradation of solution in water ([4]; 1 mM, after 1 hour open at room temperature): 2% | degradation of solution in water ([4]; 1 mM, after 3 hours): 10% | half-life [4, 8]: ~16 min | time until completely destroyed [4, 8]: 90 min | stability of solutions in 0.1 N HCl ([4]; −20° C.): stable for several weeks | oxidation product by HPLC ([6]; 100 mM in water, after 7 weeks): showed a peak at 4.2 min attributed to oxidation sub-products | oxidation product by HPLC ([6]; 100 mM in water, after one day): showed a peak at 4.2 min attributed to oxidation sub-products | sapropterin degraded [7]: 3-7%
